Assay results reported in patent US20120172375A1, “COMPOUNDS AND METHODS OF PROMOTING OLIGODENDROCYTE PRECURSOR DIFFERENTIATION” (priority 2008, published 2012).

B1: CNTF: ciliary neurotrophic factor, neurotrophin used as positive control for cell differentiation in primary screening (protein, UniProt P26441 1-200, looked up)
Ciliary neurotrophic factor: MAFTEHSPLTPHRRDLCSRSIWLARKIRSDLTALTESYVKHQGLNKNINLDSADGMPVASTDQWSELTEAERLQENLQAYRTFHVLLARLLEDQQVHFTPTEGDFHQAIHTLLLQVAAFAYQIEELMILLEYKIPRNEADGMPINVGDGGLFEKKLWGLKVLQELSQWTVRSIHDLRFISSHQTGIPARGSHYIANNKKM

Experiments:
[1] = test system: oligodendrocyte progenitor cells; assay: Western blot for myelin proteins PLP/DM20 and CNPase in treated oligodendrocyte progenitor cells; format: cell-based, mouse; conditions: Table 3, 10 μM, 48 hrs
Protocol: (§1) Oligodendrocyte progenitors were generated from embryonic neural progenitors growing in cell aggregates known as neurospheres (Nphs). Nph were prepared from embryos at 14.5 days of gestation obtained from timed pregnant females of either wild type mice or the proteolipid protein-enhanced-green fluorescence protein (Plp-EGFP) transgenic mouse. In brief, after separation of meninges and cerebellum, cerebrum tissue was mechanically triturated with a 1 ml Gilson pipette until total tissue disaggregation was achieved, filtered through a 70 μm cell strainer (Fisher Scientific, Pittsburg, Pa.) and plated in 25 cm^2 plastic culture flasks (2 brains/flask). Nph proliferation media (NPM) was DMEM/F12, B27 neuronal supplement (Gibco, Baltimore, Md.) and 10 ng/ml EGF (Sigma, St. Louis, Mo.). After 48-72 hr, floating Nphs were passaged at a 1:3 ratio in the same medium every 3-4 days. To generate oligodendrocyte progenitors, single cells suspensions were obtained by chemical disgregation with the mouse NeuroCult dissociation kit (StemCell Technologies, Alberta, Canada). The single cell suspension was filtered through a 70 μm cell strainer and plated on 96-well poly-D-Lysine (PDL)-coated plates at a cell density of 1.5×10^4 cells/cm^2. Cells were maintained in NPM supplemented with 10 ng/ml PDGF/bFGF instead of EGF. Bipolar, oligodendrocyte progenitor cells were observed 24 hours after plating. At the Moment of treatment to induce oligodendrocyte progenitor differentiation, the media was changed to OPC differentiation media containing NPM with a 1:10 dilution of PDGF/FGF.
For myelin protein analyses, cells were grown on 100 mm culture plates and after exposure to small molecules or controls were washed twice with ice-cold PBS. RIPA lysis buffer was added to the plates and the cells were scraped, collected and disrupted with a homogenizer on ice. Cell homogenates were then centrifuged at 6,000×g, 10 min, 4° C. and supernatants separated in a fresh tube. After adding Laemli loading buffer, proteins were denaturized at 70° C. for 10 mm and loaded in gradient gels (4-20, Criterion, BioRad, Calif.). Electroforetically separated proteins were electro-transferred to nitrocellulose membranes in a semi-dry apparatus and unspecific bonds were blocked with IRdye blocking solution for at least 1 hr at RT. After washing twice with TBS-T, primary antibodies were added and incubated over night at 4° C. Membranes were incubated with secondary, IRdye-infrared conjugated antibodies for 1 hr at RT and visualized on the Odyssey scanner.
(§2) The primary screening to select positive compounds was performed at a standard concentration of 10 μM with cell morphology analysis 48 hrs after treatment. Dose response curves at 48 hrs treatment time were performed to determine the minimum concentration compounds A, A-7 and B needed to induce cell maturation. We assessed oligodendrocyte differentiation by cell morphology changes, green fluorescence in cells generated from or Plp-EGFP transgenic mouse, immunostaining for myelin proteins and western blot for expression of the oligodendrocyte markers PLP/DM20 and 2′,3′, cyclic nucleotide 3′ phosphohydrolase (CNPase). EC50 values were also calculated based on results of western blot for myelin proteins and subsequent band densitometry analysis. Additionally, we followed cell differentiation induced over long time exposure to compounds A and B (7 days, 0.1-10 μM).

[2] = test system: oligodendrocyte progenitor cells; assay: Immunocytochemistry for PLP/DM20 and MBP, count of differentiated cells; format: cell-based, mouse; conditions: Table 3, 10 μM, 48 hrs
Protocol: Immunodetection of oligodendrocyte and myelin markers was performed. In brief, Oligodendrocyte cells plated on PDL-coated dishes were initially fixed in 2% paraformaldehyde (PFA) for 10 min at room temperature (RT) and then 4% PFA for 15 min, washed three times with PBS and permeabilized with 0.1% Triton X100 for 10 min at RT. After blocking with 3% BSA in PBS for 60 min a RT, the cells were incubated with primary antibodies at the indicated concentrations overnight (ON) at 4° C. The cells were washed three times with cold PBS incubated with secondary antibodies for 45 min at RT, and washed again before mounting. Immunostaining of tissue sections prepared with a sliding microtome (30 μm) was performed. In brief, tris buffered saline (TBS) containing 100 nM Sodium fluoride (TBSS) was used the all dilutions and washes. For antigen retrieval, sections were washed 3 times in TBSS, incubated in 5% methanol and 3% H2O2 for 10 min, washed 2 times, and then incubated in 10% Triton X-100 for 20 min. Blocking of unspecific bonds was performed by incubating the tissue sections with 10% NGS for 1 hr. Primary antibodies were diluted in 3% BSA containing 0.02% Triton X-100 and sections were incubated overnight in this solution. The next day the sections were washed 3 times in TBSS, followed by 1 hr incubation in secondary antibodies (1:1000) at 4° C. After several washes, the sections were mounted using Vectashield (Vector Laboratories, Burlingame, Calif.). Visualization of immunostained cells and tissue was performed on a Leica DMR (Wetzlar, Germany) or a Leica SP5 confocal microscope.
as §2
Compound A-7-induced oligodendrocyte progenitor maturation was also analyzed in comparison to control cells in immunostaining experiments to detect the myelin proteins MBP and PLP. Positive cells for these markers showing processes formation and membranous structures were counted versus total cells and counterstained with the nuclear dye Dapi after 48 hrs (Tables 3 and 4) and 7 days treatment with 0.1, 1 or 10 μM compound A-7 (FIG. 2, B).

[3] = test system: oligodendrocyte progenitors; assay: Primary/secondary screening: oligodendrocyte progenitor morphology changes and Plp-EGFP fluorescence; format: cell-based, mouse
Protocol: as §1, with “At the Moment of treatment to induce oligodendrocyte progenitor differentiation, the media was changed to OPC differentiation media containing NPM with a 1:10 dilution of PDGF/FGF.” left out
The small molecule library consists of handcrafted drug-like organic molecules with molecular weight in a range of 250-550, dissolved in DMSO at concentration of 5 mg/ml or […]. Their structure and >95% purity have been validated by NMR. […] Oligodendrocyte progenitor differentiation was scored using as 4 scale values as follows: 1: bipolar, undifferentiated; 2: bipolar to tripolar, initiated differentiation; 3: multibranched, differentiated cells; 4: multibranched, differentiated cells showing membranous structures (FIG. 1).
Differentiation induced by selected compounds was further validated by fluorescence microscopy in cells generated from our Plp-EGFP transgenic mouse. Increased fluorescence in treated oligodendrocyte progenitor was indicative of cell maturation and was again scored following the same scale. […] These were analyzed for cell toxicity assays by MTT were yellow 3-(4,5-Dimethylthiazol-2-yl)-2,5-diphenyltetrazolium bromide, a tetrazole (MTT) is reduced to purple formazan in the mitochondria of living cells, showing a solution color change measurable by OD620-590 (Data not shown). Further oligodendrocyte progenitor maturation in response to selected compounds was assessed by induction of myelin protein expression as determined by immunocytochemistry and western blot. […]

[4] = test system: Akt; assay: Akt activity in cell extracts of oligodendrocyte precursors (phosphorylation of Akt substrate GSKα/β); format: cell-based; conditions: 10 μM, 48 h
Excerpt: Oligodendrocyte precursor differentiation requires the activation of a complex, highly controlled machinery that signals cells to stop migrating/proliferating and start extending processes and producing myelin components. A number of inducers and intracellular mediators of this process have been identified in vitro and in viva. […] Therefore, we studied whether our selected small molecules induced Akt signaling in oligodendrocyte precursors. We analyzed Akt activity in cell extracts of oligodendrocyte precursors treated with selected compounds (10 μM, 48 h), as determined by phosphorylation of Akt substrate GSKα/β.

| Molecule | PLP/DM20 Expression (WB, % of Control) [1] | Differentiated Cells (IC, % of Control) [2] | induction of oligodendrocyte precursor maturation [3] | other results |
| --- | --- | --- | --- | --- |
| CCS(=O)(=O)N1CCN(C(=O)COc2ccccc2)CC1 | 148 ± 10.6 n = 2 % of Control | 195 ± 10.9 n = 3; p <0.05 % of Control |  |  |
| CCS(=O)(=O)N1CCN(C(=O)COc2ccc(C)cc2)CC1 | 160.7 ± 8.2 n = 2 % of Control | 207.5 ± 38.2 n = 3; p <0.05 % of Control |  |  |
| CCCS(=O)(=O)N1CCN(C(=O)COc2ccc(OC)cc2)CC1 | 143.0 ± 6.9 n = 2 % of Control | 224.3 ± 66.3 n = 3; p <0.05 % of Control |  |  |
| CC(=O)NC(=Cc1ccc(Cl)cc1)C(=O)N1CCOCC1 [D, N-[2-(4-chlorophenyl)-1-(4-morpholinylcarbonyl)vinyl]acetamide] |  |  | showed induction of oligodendrocyte precursor maturation |  |
| Br.COc1ccc(C2=CSC3=NCCN23)cc1F [F, 3-(3-fluoro-4-methoxyphenyl)-5,6-dihydroimidazo[2,1-b][1,3]thiazole hydrobromide] |  |  | showed induction of oligodendrocyte precursor maturation | Akt phosphorylation [4]: clearly detected |
| B1 |  |  |  | oligodendrocyte progenitor morphological changes indicative of cell maturation ([3]; positive control, 10 ng/ml, 48 hrs): marked oligodendrocyte progenitor morphological changes |
